Where “and” joins values, the source holds several entries; their conditions need not be identical. Identical values can stand only once.
Key:
Streptococcus faecalis [1] = experiment: MIC by two-fold serial broth dilution, alone and in combination (Example 1); type: cell-based; conditions: 2nd substance novobiocin; MIC/2 instead of ≤ MIC/4
[2] = system: Streptococcus pyogenes 3009; experiment: Combined antibiotic therapy of experimental infection in mice (Example 5); type: in vivo, mice infected with Streptococcus pyogenes 3009; conditions: 6 LD50
Source text: (§1) For example, using Escherichia coli 2017 as the infecting agent, sodium phosphonomycin was titrated alone and in the presence 5 and also in the presence of 0.5γtetracycline, while tetracycline was titrated alone and in the presence of 50γ, and also in the presence of 5γof sodium phosphonomycin. The two drugs were given by the subcutaneous route at separate sites on the ventral surface of the mouse. Such therapy was given only at the time of infection for the Escherichia coli and Pseudomonas aeruginosa tests but both at the time of infection and 6 hours later for all other tests. Infection was given intraperitoneally using broth suspensions of the test organism.

Staphylococcus aureus [3] = experiment: criss-cross MIC method in nutrient broth (Example 2); type: cell-based; conditions: 2nd substance chloramphenicol (CLM)
Method: This method involved the simultaneous determination of the MIC (minimum inhibitory concentration) of each member of a pair of antibiotics and of combinations of the two in nutrient broth (NB) containing 0.2% yeast extract (YE). Serial two-fold dilutions were made throughout the experiment, and the starting inoculum consisted of approximately 25,000 cells/ml. of Staphylococcus aureus. Incubation was at 37°C. for 24 hours. Identical experiments were performed on two different days.

Pseudomonas stutzeri = experiment: MIC by two-fold serial broth dilution, alone and in combination (Example 1); type: cell-based
Method: (§2) The MIC (minimum inhibitory concentration) of phosphonomycin and each of the other antibiotics by itself was determined before the combination synergy experiment was begun, as follows: 2 ml. of a double strength solution in sterile distilled water of the highest strength to be tested (usually 1000γ) was added to a tube of double strength nutrient broth (NB) and mixed thoroughly. Two-fold serial dilutions were then made by transferring 2 ml. to the next tube (1 × NB) and so on for approximately 12 tubes. The tubes were inoculated with one drop each of a 1:50 dilution of a culture adjusted to a Lumetron 60 reading in NB + 0.2% yeast extract so as to provide a concentration of cells of approximately 25,000/ml. The tubes were then incubated at 37°C. and examined for growth at 24, 48 and 72 hours.
(§3) In the combination experiment, the MIC value obtained as described above was used as approximately the midpoint of the range to be tested for each of the two antibiotics of the combination. In a manner similar to the above, two-fold dilutions of the first substance in the combination were made except that 1.8 ml. volumes were used and a 2.2 × strength solution of both the antibiotic and the NB were made. The second antibiotic of the combination was added to duplicate rows of serial dilutions of the first substance as follows: 0.2 ml. in NB of a [formula] and a [formula] respectively, of the second substance was added to each tube in a row of serial dilutions of the first antibiotic. The final concentration that resulted enabled the determination of the effect of both MIC/4 and MIC/8 of each substance in the presence of from approximately 32 MIC to [formula] of the other. Inocula were added as in the initial single MIC experiment.

Staphylococcus aureus [4] = experiment: as above; type: cell-based
Method: as §2, §3

Pseudomonas aeruginosa = experiment: as above; type: cell-based
Method: as §2, §3

Streptococcus faecalis [5] = experiment: as above; type: cell-based
Method: as §2, §3

Klebsiella pneumoniae = experiment: as above; type: cell-based
Method: as §2, §3

Proteus vulgaris = experiment: as above; type: cell-based
Method: as §2, §3

[6] = system: test organisms of Example 1; experiment: Summary of the twelve combination synergy tests (Example 1); type: cell-based
Method: as §2
In the combination experiment, the MIC value obtained as described above was used as approximately the midpoint of the range to be tested for each of the two antibiotics of the combination. In a manner similar to the above, two-fold dilutions of the first substance in the combination were made except that 1.8 ml. volumes were used and a 2.2 × strength solution of both the antibiotic and the NB were made. […]

bacterial cell wall = experiment: mode of action on bacteria; type: cell-based
Source text: In accordance with one embodiment of this invention, pathogenic bacteria are controlled by concomitantly contacting these pathogens with phosphonomycin and a bacteriostatic chemotherapeutic agent. The action of the phosphonomycin is to potentiate, augment or synergise the activity of the bacteriostatic agent. This potentiation of the bacteriostats is indeed unexpected since the bacteriostatic agents have an entirely different mode of action than phosphonomycin. […] Thus, phosphonomycin is indeed unique among antibiotics in that it is capable of potentiating the important bacteriostatic chemotherapeutic agents.

[7] = system: Klebsiella pneumoniae "B"; experiment: Combined antibiotic therapy of experimental infection in mice (Example 5); type: in vivo, mice infected with Klebsiella pneumoniae "B"; conditions: 7 LD50
Source text: as §1

pathogenic bacteria = experiment: in vitro combination tests with various pathogens (general description); type: cell-based
Source text: Other experimental results have shown that novobiocin, chlortetracycline and sulfisoxazole are potentiated when combined with phosphonomycin and tested with various strains of pathogenic bacteria.

[8] = system: Pseudomonas aeruginosa 3210; experiment: Combined antibiotic therapy of experimental infection in mice (Example 5); type: in vivo, mice infected with Pseudomonas aeruginosa 3210; conditions: 10 LD50
Source text: as §1

[9] = alone, therapy at 0 and 6 hours, phosphonomycin as sodium salt
[10] = phosphonomycin titrated, novobiocin constant 100
[11] = phosphonomycin titrated, novobiocin constant 1000

Compound: C[C@@H]1O[C@@H]1P(=O)(O)O [Phosphonomycin, (-) (cis-1,2-epoxypropyl)phosphonic acid]
- Phosphonomycin MIC in presence of 2nd substance (Streptococcus faecalis [1]): 24 µg/mL
- % ED50 ([2]; alone): 100%
- % ED50, Combined % ([2]; alone): 100%
- s.c. ED50 [2, 9]: 1400 µg
- % ED50 ([2]; tetracycline titrated, phosphonomycin constant 500): 64%
- % ED50 ([2]; tetracycline titrated, phosphonomycin constant 1000): 71%
- Phosphonomycin MIC in presence of MIC/4 of 2nd subst. (Staphylococcus aureus [3]): 15.6 µg/mL and 7.8 µg/mL
- Phosphonomycin MIC in presence of ≤ MIC/4 of 2nd substance (Pseudomonas stutzeri; 2nd substance novobiocin): 16
- MIC (Pseudomonas stutzeri; Stutzerimonas stutzeri, read-out: Phosphonomycin MIC): > 220 µg/mL
- Phosphonomycin MIC in presence of ≤ MIC/4 of 2nd substance (Staphylococcus aureus [4]; 2nd substance erythromycin): 24
- Phosphonomycin MIC in presence of ≤ MIC/4 of 2nd substance (Staphylococcus aureus [4]; 2nd substance novobiocin): 48
- Phosphonomycin MIC in presence of ≤ MIC/4 of 2nd substance (Pseudomonas aeruginosa; 2nd substance erythromycin): 12
- Phosphonomycin MIC in presence of ≤ MIC/4 of 2nd substance (Pseudomonas aeruginosa; 2nd substance novobiocin): 93.6
- Phosphonomycin MIC in presence of ≤ MIC/4 of 2nd substance (Streptococcus faecalis [5]; 2nd substance chlortetracycline): 48
- Phosphonomycin MIC in presence of ≤ MIC/4 of 2nd substance (Streptococcus faecalis [5]; 2nd substance erythromycin): 192
- MIC (Streptococcus faecalis [5]; Enterococcus faecalis, alone, read-out: Phosphonomycin MIC): 93.6 µg/mL
- Phosphonomycin MIC (Streptococcus faecalis [5]; alone, in µg/mL): 96 and 48
- Phosphonomycin MIC in presence of ≤ MIC/4 of 2nd substance (Klebsiella pneumoniae; 2nd substance novobiocin): 5.8
- MIC (Klebsiella pneumoniae; Klebsiella pneumoniae, alone, read-out: Phosphonomycin MIC): 750 µg/mL
- Phosphonomycin MIC in presence of 2nd substance (Proteus vulgaris; 2nd substance chlortetracycline, MIC/2 instead of ≤ MIC/4): 24 µg/mL
- Phosphonomycin MIC in presence of ≤ MIC/4 of 2nd substance (Proteus vulgaris; 2nd substance erythromycin): 96
- Phosphonomycin MIC in presence of ≤ MIC/4 of 2nd substance (Proteus vulgaris; 2nd substance novobiocin): 6.8
- antagonism by the combination of antibiotics [6]: in no case was there any evidence of antagonism
- tests in which potentiating effect of phosphonomycin is observed [6]: eight of the twelve tests
- mode of action (bacterial cell wall): bactericidal in action
- spheroplasts (bacterial cell wall; certain bacterial strains exposed to the antibiotic): detection of spheroplasts
- % ED50 ([7]; alone): 100%
- s.c. ED50 [7, 9]: 2130 µg
- % ED50 [7, 10]: 52%
- s.c. ED50 [7, 10]: 1110 µg
- % ED50 [7, 11]: 14%
- s.c. ED50 [7, 11]: 298 µg
- tests in which phosphonomycin potentiated the effect of chloramphenicol (pathogenic bacteria; almost 200 pathogenic bacteria, about 15,000 individual tests): 88%
- antagonism (pathogenic bacteria; between phosphonomycin and each of chloramphenicol and erythromycin): no antagonism
- antagonism (pathogenic bacteria; various tests with human pathogens): does not exhibit any antagonism
- synergism (pathogenic bacteria; with chloramphenicol, erythromycin, tetracyclines, novobiocin and sulfisoxazole, inhibition at one quarter or less of MIC of each): acts synergistically
- % ED50 ([8]; alone): 100%
- s.c. ED50 ([8]; alone, therapy at 0 hour only, phosphonomycin as sodium salt): 1420 µg
- % ED50 [8, 10]: 88%
- s.c. ED50 [8, 10]: 1250 µg
- % ED50 [8, 11]: 195%
- s.c. ED50 [8, 11]: 2760 µg

— US3935309A, “Synergistic combinations of phosphonomycin and bacteriostatic agents” (Merck & Co., Inc., priority 1974, dated 1976)
